We go through 24 compounds from patent US9862707B2, “TrkA kinase inhibitors, compositions and methods thereof” (Merck Sharp & Dohme Corp., priority 2014, dated 2018).

The structures appear in SMILES notation.

Chain of human TrkA receptor (P04629 33-796): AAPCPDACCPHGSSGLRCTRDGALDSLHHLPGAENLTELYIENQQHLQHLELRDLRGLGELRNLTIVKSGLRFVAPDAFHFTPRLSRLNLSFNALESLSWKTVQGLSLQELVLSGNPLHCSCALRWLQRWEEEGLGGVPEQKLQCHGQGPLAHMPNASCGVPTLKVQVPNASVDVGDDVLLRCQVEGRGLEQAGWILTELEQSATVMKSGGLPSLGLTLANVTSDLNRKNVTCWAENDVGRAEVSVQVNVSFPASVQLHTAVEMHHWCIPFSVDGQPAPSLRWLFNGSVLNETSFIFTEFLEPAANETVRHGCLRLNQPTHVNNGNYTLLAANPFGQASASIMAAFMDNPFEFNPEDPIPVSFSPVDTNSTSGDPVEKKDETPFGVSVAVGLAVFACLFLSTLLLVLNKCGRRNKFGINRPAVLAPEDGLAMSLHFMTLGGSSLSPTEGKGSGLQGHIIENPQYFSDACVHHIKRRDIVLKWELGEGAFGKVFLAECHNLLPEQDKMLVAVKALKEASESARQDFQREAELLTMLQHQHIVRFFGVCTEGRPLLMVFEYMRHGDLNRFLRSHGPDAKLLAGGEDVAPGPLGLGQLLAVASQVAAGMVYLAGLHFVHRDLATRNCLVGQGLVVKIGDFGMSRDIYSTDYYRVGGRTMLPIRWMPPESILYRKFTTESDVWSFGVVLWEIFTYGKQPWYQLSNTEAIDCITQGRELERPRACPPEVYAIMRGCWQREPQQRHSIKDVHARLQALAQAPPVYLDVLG

The test has as its target human TrkA receptor (Homo sapiens (Human), UniProt P04629). The experiment in a line: TrkA functional activity, DiscoverX PathHunter assay. The test is classed as cell-based. As to conditions: U2OS cells expressing human TrkA-PK, Shc1-EA and p75NTR; compound 1 h, then NGF at ~80% of maximal response for 3 h; luminescence.
Protocol: TrkA functional activity was measured using a DiscoverX PathHunter assay. In this assay, U2OS cells express the human TrkA receptor as a fusion with the weakly complementing fragment of B-galactosidase, which DiscoverX calls “Prolink (PK)”; additionally, Shc1 is fused with a larger fragment, which is called “Enzyme Acceptor (EA)”. Activation of the TrkA receptor, upon NGF addition, results in the kinase domain being phosphorylated, resulting in subsequent recruitment of Shc1-EA protein. That recruitment results in an active B-galactosidase enzyme that is detected by addition of a chemiluminescent substrate. The human p75^NTR protein was also expressed as a co-receptor for NGF.
All reagents were purchased from DiscoverX, except for the receptor agonists (NGF, BDNF, NT3) which were purchased from Peprotech. Cells were expanded and frozen into cryovials, and stored in the vapor phase of liquid nitrogen, and thawed immediately before use. Thawed cells were added to a 384-well plate at 7500 cells/well, and allowed to incubate overnight. Compound at various concentrations was added the following morning and allowed to incubate on cells for 1 h. Then, NGF was added at a concentration sufficient to elicit ˜80% of a maximal response and allowed to incubate for 3 h at ambient temperature. DiscoverX PathHunter detection reagent was then added and the plate was further incubated for 1 h in the dark. The plate was then read via luminescence on the Perkin Elmer Envision.
Turning to `CC(O)c1ccc2c(NC(=O)c3cc(-c4ncccn4)c(C(F)(F)F)cc3F)n(-c3ccccc3)nc2c1` (single isomer, unassigned) [Compound 19, (R and S)-2-Fluoro-N-(6-(1-hydroxyethyl)-2-phenyl-2H-indazol-3-yl)-5-(pyrimidin-2-yl)-4-(trifluoromethyl)benzamide, isomers A and B], the midpoint of inhibition, the IC50, lay at 1.9 nM.
The value for `CC(O)c1ccc2c(NC(=O)c3cc(-c4ncccn4)c(C(F)(F)F)cc3F)n(-c3ccccc3)nc2c1` (single isomer, unassigned) [Compound 20, (R and S)-2-Fluoro-N-(6-(1-hydroxyethyl)-2-phenyl-2H-indazol-3-yl)-5-(pyrimidin-2-yl)-4-(trifluoromethyl)benzamide, isomers A and B] was 2.9 nM.
As for `CC(O)c1cnc2c(NC(=O)c3cc(-c4cc[nH]n4)c(C(F)(F)F)cc3F)n(-c3ccccc3)nc2c1` (single isomer, unassigned) [Compound 21, 2-Fluoro-N-(6-(1-hydroxyethyl)-2-phenyl-2H-pyrazolo[4,3-b]pyridin-3-yl)-5-(1H-pyrazol-3-yl)-4-(trifluoromethyl)benzamide, isomers A and B], the figure is 0.69 nM; as for `CC(O)c1cnc2c(NC(=O)c3cc(-c4cc[nH]n4)c(C(F)(F)F)cc3F)n(-c3ccccc3)nc2c1` (single isomer, unassigned) [Compound 22, 2-Fluoro-N-(6-(1-hydroxyethyl)-2-phenyl-2H-pyrazolo[4,3-b]pyridin-3-yl)-5-(1H-pyrazol-3-yl)-4-(trifluoromethyl)benzamide, isomers A and B], 1.2 nM.
The value for `O=C(Nc1c2ccc(C(O)C(F)(F)F)cc2nn1-c1ccccc1)c1cc(-c2ncccn2)c(C(F)(F)F)cc1F` (single isomer, unassigned) [Compound 52, (R or S)-2-Fluoro-N-{2-phenyl-6-[(1S)-2,2,2-trifluoro-1-hydroxyethyl]-2H-indazol-3-yl}-5-pyrimidin-2-yl-4-(trifluoromethyl)benzamide, isomers A and B] was 2.8 nM; that for `O=C(Nc1c2ccc(C(O)C(F)(F)F)cc2nn1-c1ccccc1)c1cc(-c2ncccn2)c(C(F)(F)F)cc1F` (single isomer, unassigned) [Compound 53, (R or S)-2-Fluoro-N-{2-phenyl-6-[(1S)-2,2,2-trifluoro-1-hydroxyethyl]-2H-indazol-3-yl}-5-pyrimidin-2-yl-4-(trifluoromethyl)benzamide, isomers A and B] was 29 nM.
In turn, `CC(N)c1ccc2c(NC(=O)c3cc(-c4ncccn4)c(C(F)(F)F)cc3F)n(-c3ccccc3)nc2c1` (single isomer, unassigned) [Compound 69, (R or S)-N-{6-[1-aminoethyl]-2-phenyl-2H-indazol-3-yl}-2-fluoro-5-pyrimidin-2-yl-4-(trifluoromethyl)benzamide] returned an IC50 of 7.1 nM.
As for `CC(N)c1ccc2c(NC(=O)c3cc(-c4ncccn4)c(C(F)(F)F)cc3F)n(-c3ccccc3)nc2c1` (single isomer, unassigned) [Compound 70, (R or S)-N-{6-[1-aminoethyl]-2-phenyl-2H-indazol-3-yl}-2-fluoro-5-pyrimidin-2-yl-4-(trifluoromethyl)benzamide], the figure is 14 nM; as for `O=C(Nc1c2ccc(C3CCCN3)cc2nn1-c1ccccc1)c1cc(-c2ncccn2)c(C(F)(F)F)cc1F` (single isomer, unassigned) [Compound 102, (R and S)-2-Fluoro-N-(2-phenyl-6-(pyrrolidin-2-yl)-2H-indazol-3-yl)-5-(pyrimidin-2-yl)-4-(trifluoromethyl)benzamide, isomers A and B], 29 nM; as for `O=C(Nc1c2ccc(C3CCCN3)cc2nn1-c1ccccc1)c1cc(-c2ncccn2)c(C(F)(F)F)cc1F` (single isomer, unassigned) [Compound 103, (R and S)-2-Fluoro-N-(2-phenyl-6-(pyrrolidin-2-yl)-2H-indazol-3-yl)-5-(pyrimidin-2-yl)-4-(trifluoromethyl)benzamide, isomers A and B], 29 nM.
As for `CC(O)c1ccc2nn(-c3ccccc3)c(NC(=O)c3ccc(C(F)(F)F)c(-c4ccn(C)n4)c3)c2c1` (single isomer, unassigned; isomer a) [Compound 23, (R or S)-N-[5-(1-hydroxyethyl)-2-phenyl-2H-indazol-3-yl]-3-(1-methyl-1H-pyrazol-3-yl)-4-(trifluoromethyl)benzamide, isomer A], the figure is 3.7 nM.
On to `CC(O)c1cnc2c(NC(=O)c3cc(-c4ncccn4)c(C(F)(F)F)cc3F)n(-c3ccccc3)nc2c1` (single isomer, unassigned; isomer a) [Compound 29, (R or S)-2-fluoro-N-[6-(1-hydroxyethyl)-2-phenyl-2H-pyrazolo[4,3-b]pyridin-3-yl]-5-pyrimidin-2-yl-4-(trifluoromethyl)benzamide, isomer A], for which the IC50 turned out to be 1.8 nM.
The value for `CC(O)c1ccc2nn(-c3ccccc3)c(NC(=O)c3cc(-c4cc[nH]n4)c(C(F)(F)F)cc3F)c2n1` (single isomer, unassigned; isomer a) [Compound 31, (R or S)-2-fluoro-N-[5-(1-hydroxyethyl)-2-phenyl-2H-pyrazolo[4,3-b]pyridin-3-yl]-5-(1H-pyrazol-3-yl)-4-(trifluoromethyl)benzamide, isomer A] was 5.2 nM; that for `CC(O)c1cnc2c(NC(=O)c3cc(-c4ccn(C)n4)c(C(F)(F)F)cc3F)n(-c3ccccc3)nc2c1` (single isomer, unassigned; isomer a) [Compound 33, (R or S)-2-fluoro-N-[6-(1-hydroxyethyl)-2-phenyl-2H-pyrazolo[4,3-b]pyridin-3-yl]-5-(1-methyl-1H-pyrazol-3-yl)-4-(trifluoromethyl)benzamide, isomer A] was 0.25 nM.
The value for `CC(O)c1cnc2c(NC(=O)c3cc(-c4ncccn4)c(C(F)(F)F)cc3Cl)n(-c3ccccc3)nc2c1` (single isomer, unassigned; isomer a) [Compound 35, (R or S)-2-chloro-N-[6-(1-hydroxyethyl)-2-phenyl-2H-pyrazolo[4,3-b]pyridin-3-yl]-5-pyrimidin-2-yl-4-(trifluoromethyl)benzamide, isomer A] was 1.7 nM; that for `CC(O)c1ccc2c(NC(=O)c3cc(-c4ncccn4)c(C(F)(F)F)cc3Cl)n(-c3ccccc3)nc2c1` (single isomer, unassigned; isomer a) [Compound 37, (R or S)-2-chloro-N-[6-(1-hydroxyethyl)-2-phenyl-2H-indazol-3-yl]-5-pyrimidin-2-yl-4-(trifluoromethyl)benzamide, isomer A] was 4.4 nM; that for `O=C(Nc1c2cc(C(O)C(F)(F)F)ccc2nn1-c1ccccc1)c1cc(-c2ncccn2)c(C(F)(F)F)cc1F` (single isomer, unassigned; isomer a) [Compound 54, (R or S)-2-fluoro-N-(2-phenyl-5-(2,2,2-trifluoro-1-hydroxyethyl)-2H-indazol-3-yl)-5-(pyrimidin-2-yl)-4-(trifluoromethyl)benzamide, isomer A] was 23 nM.
As for `O=C(Nc1c2ccc(C(O)C(F)F)cc2nn1-c1ccccc1)c1cc(-c2ncccn2)c(C(F)(F)F)cc1F` (single isomer, unassigned; isomer a) [Compound 56, (R or S)-N-[6-(2,2-difluoro-1-hydroxyethyl)-2-phenyl-2H-indazol-3-yl]-2-fluoro-5-pyrimidin-2-yl-4-(trifluoromethyl)benzamide, isomer A], the figure is 2.8 nM.
`O=C(Nc1c2cc(C(O)C(F)F)ccc2nn1-c1ccccc1)c1cc(-c2ncccn2)c(C(F)(F)F)cc1F` (single isomer, unassigned; isomer a) [Compound 58, (R or S)-N-[5-(2,2-difluoro-1-hydroxyethyl)-2-phenyl-2H-indazol-3-yl]-2-fluoro-5-pyrimidin-2-yl-4-(trifluoromethyl)benzamide, isomer A]: half-maximal inhibition (IC50) was put at 6.9 nM.
As for `O=C(Nc1c2ncc(C(O)CO)cc2nn1-c1ccccc1)c1cc(-c2ncccn2)c(C(F)(F)F)cc1Cl` (single isomer, unassigned; isomer a) [Compound 64, (R or S)-2-chloro-N-[6-(1,2-dihydroxyethyl)-2-phenyl-2H-pyrazolo[4,3-b]pyridin-3-yl]-5-pyrimidin-2-yl-4-(trifluoromethyl)benzamide, isomer A], the figure is 15 nM; as for `CC(O)c1ccc2nn(-c3ccccc3)c(NC(=O)c3ccc(C(F)(F)F)c(-c4ccn(C)n4)c3)c2c1` (single isomer, unassigned; isomer b) [Compound 24, (R or S)-N-[5-(1-hydroxyethyl)-2-phenyl-2H-indazol-3-yl]-3-(1-methyl-1H-pyrazol-3-yl)-4-(trifluoromethyl)benzamide, isomer B], 2.4 nM; as for `CC(O)c1cnc2c(NC(=O)c3cc(-c4ncccn4)c(C(F)(F)F)cc3F)n(-c3ccccc3)nc2c1` (single isomer, unassigned; isomer b) [Compound 30, (R or S)-2-fluoro-N-[6-(1-hydroxyethyl)-2-phenyl-2H-pyrazolo[4,3-b]pyridin-3-yl]-5-pyrimidin-2-yl-4-(trifluoromethyl)benzamide, isomer B], 1.1 nM.
The value for `CC(O)c1ccc2nn(-c3ccccc3)c(NC(=O)c3cc(-c4cc[nH]n4)c(C(F)(F)F)cc3F)c2n1` (single isomer, unassigned; isomer b) [Compound 32, (R or S)-2-fluoro-N-[5-(1-hydroxyethyl)-2-phenyl-2H-pyrazolo[4,3-b]pyridin-3-yl]-5-(1H-pyrazol-3-yl)-4-(trifluoromethyl)benzamide, isomer B] was 5.1 nM; that for `CC(O)c1cnc2c(NC(=O)c3cc(-c4ccn(C)n4)c(C(F)(F)F)cc3F)n(-c3ccccc3)nc2c1` (single isomer, unassigned; isomer b) [Compound 34, (R or S)-2-fluoro-N-[6-(1-hydroxyethyl)-2-phenyl-2H-pyrazolo[4,3-b]pyridin-3-yl]-5-(1-methyl-1H-pyrazol-3-yl)-4-(trifluoromethyl)benzamide, isomer B] was 0.48 nM.

Broadly, the IC50 is the point on the concentration scale where inhibition reaches its midpoint. The low end stands for greater potency in that assay, the high end for weaker potency in that assay.
